From US6369252B1, “Structured lipids” (The University of Georgia Research Foundation, Inc., priority 1998, dated 2002)

Legend:
[1] = Oxidative stability index (OSI); assay type: physicochemical; conditions: 80° C., air flow […]
Experimental: Oxidative stability index (OSI). An Oxidative Stability Instrument (Omnion, Rockland, Mass.) was used to measure induction times. Five grams of tricaprylin, EPAX 5500 (fish oil TAG, Pronova Biocare, Sandefjord, Norway), and SL which was deacidified by alkali-liquid extraction were placed into the disposable borosilicate glass reaction tubes with disposable pipets. The heating temperature was 80° C. The polycarbonate conductivity tubes were filled with deionized water and he probes were connected. After temperature reached 80° C., air was bubbled in. […] OSI time was determined with an on-line computer, which monitored the conductivity vs time and plotted the induction period automatically. OSI values at 80° C. were converted to AOM and OSI values at 97.8° C.

[2] = TBA (2-thiobarbituric acid) lipid oxidation test; assay type: physicochemical; conditions: 1, 2, and 4% α-tocopherol in SL, after 48 hours
Experimental: TBA. A modified extraction 2-thiobarbituric acid method was used, Salih, et al., Poult. Sci., 66:1483-1488 (1987). The TBA test expresses lipid oxidation in milligram malonaldehyde (secondary oxidation product of polyunsaturated fatty acids) per kilogram of sample. 1±0.002 grams of SL was mixed with 0.01, 0.02, and 0.04 grams of α-tocopherol in a 25 mL flask and left at room temperature without protection from light for 12, 24, and 48 hours. Each sample was then purged with nitrogen and stored at −90° C. until assay. One milliliter of 6% BHT in ethanol and 25 mL 5% TCA solution in distilled water were added to each sample and blended. A 2 mL aliquot of the blended sample was mixed with 0.02 M TBA solution (3 mL) in screw capped test tubes. After vortexing (30 sec.), the tubes were incubated in boiling water for 30 min., cooled and the absorbance against blank was measured at 535 nm. A 5 μL aliquot of TEP (0.92 g/mL) was diluted to 5 mL with 5% TCA solution and diluted to prepare various concentrations ranging from […]. Each dilution was incubated and the absorbance against blank was measured after cooling. Standard curve was plotted using absorbance values vs amount of TEP which was converted from concentration.

OSI value [1] | Compound | antioxidant effect on SL (TBA) [2]
quite stable to oxidation | CCCCCCCC(=O)OCC(COC(=O)CCCCCCC)OC(=O)CCCCCCC [tricaprylin, 1,2,3-trioctanoyl glycerol] | 
 | Cc1c(C)c2c(c(C)c1O)CC[C@@](C)(CCC[C@H](C)CCC[C@H](C)CCCC(C)C)O2 [α-tocopherol] | reduced the oxidation of SL significantly
